Read-outs that look alike come from different tables or passages of the source.
Experiments:
hSERT = biological target: T1, hSERT (Homo sapiens, UniProt P31645); assay: hSERT binding assay (Assay 1)
T1 construct: expressed in transfected cells; host or cells: HEK-293 derived cell line, stably transfected; membrane preparation
Experimental: (§1) Membrane radioligand binding assays were used to measure competitive inhibition of labeled ligand (^3H-citalopram or ^3H-nisoxetine or ^3H-WIN35428) binding to membranes prepared from cells expressing the respective human recombinant transporter (hSERT or hNET or hDAT) in order to determine the pKi values of test compounds at the transporters.
(§2) Recombinant human embryonic kidney (HEK-293) derived cell lines stably transfected with hSERT or hNET, respectively, were grown in DMEM medium supplemented with 10% dialyzed FBS (for hSERT) or FBS (for hNET), 100 μg/ml penicillin, 100 μg/ml streptomycin, 2 mM L-glutamine and 250 μg/ml of the aminoglycoside antibiotic G418, in a 5% CO2 humidified incubator at 37° C. When cultures reached 80% confluence, the cells were washed thoroughly in PBS (without Ca^2+ and Mg^2+) and lifted with 5 mM EDTA in PBS. Cells were pelleted by centrifugation, resuspended in lysis buffer (10 mM Tris-HCl, pH 7.5 containing 1 mM EDTA), homogenized, pelleted by centrifugation, then resuspended in 50 mM Tris-HCl, pH 7.5 and 10% sucrose at 4° C. Protein concentration of the membrane suspension was determined using a Bio-Rad Bradford Protein Assay kit. Membranes were snap frozen and stored at −80° C. Chinese hamster ovary membranes expressing hDAT (CHO-DAT) were purchased from PerkinElmer and stored at −80° C.
(§3) Stock solutions (10 mM in DMSO) of test compound were prepared and serial dilutions made using Dilution Buffer (50 mM Tris-HCl, 120 mM NaCl, 5 mM KCl, pH 7.4, 0.1% BSA, 400 μM ascorbic acid).
(§4) Following a 60 minute incubation at 22° C. (or a period sufficient to reach equilibrium), the membranes were harvested by rapid filtration over a 96-well UniFilter GF/B plate, pretreated with 0.3% polyethyleneimine, and washed 6 times with 300 μl wash buffer (50 mM Tris-HCl, 0.9% NaCl, pH 7.5 at 4° C.). Plates were dried overnight at room temperature, ˜45 μl of MicroScint™-20 (Perkin Elmer) added and bound radioactivity quantitated via liquid scintillation spectroscopy. Competitive inhibition curves and saturation isotherms were analyzed using GraphPad Prism Software package (GraphPad Software, Inc., San Diego, Calif.). IC50 values were generated from concentration response curves using the Sigmoidal Dose Response (variable slope) algorithm in Prism GraphPad.

hNET = biological target: T2, hNET (Homo sapiens, UniProt P23975); assay: hNET binding assay (Assay 1); conditions: read-out: NET pKi (converted)
T2 construct: expressed in transfected cells; host or cells: HEK-293 derived cell line, stably transfected; membrane preparation
T2 sequence (P23975 whole entry): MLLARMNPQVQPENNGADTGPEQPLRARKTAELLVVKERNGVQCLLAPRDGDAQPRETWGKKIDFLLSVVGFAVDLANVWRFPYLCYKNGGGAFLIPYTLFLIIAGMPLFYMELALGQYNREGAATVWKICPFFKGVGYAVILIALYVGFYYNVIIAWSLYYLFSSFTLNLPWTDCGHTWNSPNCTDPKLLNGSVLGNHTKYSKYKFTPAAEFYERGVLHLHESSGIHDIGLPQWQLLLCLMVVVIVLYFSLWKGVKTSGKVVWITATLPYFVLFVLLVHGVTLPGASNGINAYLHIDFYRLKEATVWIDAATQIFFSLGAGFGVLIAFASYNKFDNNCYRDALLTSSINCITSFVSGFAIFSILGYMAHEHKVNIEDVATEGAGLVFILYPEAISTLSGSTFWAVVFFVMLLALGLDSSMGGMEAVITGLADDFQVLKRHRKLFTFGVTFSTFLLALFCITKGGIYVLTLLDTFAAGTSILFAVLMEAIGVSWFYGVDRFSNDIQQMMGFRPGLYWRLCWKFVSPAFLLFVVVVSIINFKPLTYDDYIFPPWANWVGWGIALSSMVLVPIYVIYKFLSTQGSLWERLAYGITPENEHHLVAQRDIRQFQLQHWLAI
Experimental: as §1, §2, §3, §4

[1] = ratio of SERT Ki to NET Ki (binding)
[2] = ratio of binding Ki at hSERT to Ki at hNET, rounded off to the nearest tenth
[3] = membranes of HEK-293 cells expressing hNET, 1.0 nM 3H-nisoxetine
[4] = ratio of SERT Ki to NET Ki from binding assays
[5] = ratio of binding Ki at SERT to Ki at NET, the tables list only compounds with a ratio in the range 0.1-100
[6] = hNET binding, the tables list only compounds with NET pKi≧8

T1 sequence (P31645 whole entry): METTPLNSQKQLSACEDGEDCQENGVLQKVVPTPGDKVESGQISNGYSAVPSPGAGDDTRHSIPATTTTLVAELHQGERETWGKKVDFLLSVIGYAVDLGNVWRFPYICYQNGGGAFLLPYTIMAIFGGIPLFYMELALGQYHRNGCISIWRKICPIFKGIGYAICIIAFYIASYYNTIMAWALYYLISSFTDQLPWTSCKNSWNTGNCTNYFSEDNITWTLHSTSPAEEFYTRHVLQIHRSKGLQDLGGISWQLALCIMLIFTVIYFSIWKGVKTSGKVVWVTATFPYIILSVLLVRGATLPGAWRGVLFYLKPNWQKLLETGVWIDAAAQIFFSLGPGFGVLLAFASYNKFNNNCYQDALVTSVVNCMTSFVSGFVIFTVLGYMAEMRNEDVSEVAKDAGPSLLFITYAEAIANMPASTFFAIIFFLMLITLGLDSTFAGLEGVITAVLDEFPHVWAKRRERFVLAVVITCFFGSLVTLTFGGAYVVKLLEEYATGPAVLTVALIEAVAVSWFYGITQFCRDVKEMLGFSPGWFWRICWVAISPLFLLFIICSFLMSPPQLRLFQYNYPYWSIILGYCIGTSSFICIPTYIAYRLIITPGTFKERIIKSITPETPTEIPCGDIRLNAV

SMILES: Fc1ccc(O[C@@H](c2ccccc2)[C@H]2CCNC2)c(F)c1F [36-1]
- SERT Ki/NET Ki (hSERT; [1]): 0.8
- Ki (hNET; hNET binding): 6.31 nM

SMILES: Cc1ccc(OC(c2ccccc2)C2CCNC2)c(F)c1F (stereo not drawn) [36-5]
- SERT Ki/NET Ki (hSERT; [1]): 0.5
- Ki (hNET; hNET binding): 1.26 nM

SMILES: Clc1ccccc1OC(c1ccccc1Cl)C1CCNC1 (stereo not drawn) [Compound 20-1]
- SERT Ki/NET Ki (hSERT; [2]): 0.5
- Ki (hNET; [3]): 3.16 nM

SMILES: Cc1c(Cl)cccc1O[C@H](c1ccccc1)[C@@H]1CCNC1 [Compound 25-22]
- SERT Ki/NET Ki (hSERT; [2]): 0.2
- Ki (hNET; [3]): 0.631 nM

SMILES: Clc1cccc(OC(c2cccc(Cl)c2)C2CCNC2)c1 (stereo not drawn) [Compound 22-4]
- SERT Ki/NET Ki (hSERT; [2]): 0.2
- Ki (hNET; [3]): 7.94 nM

SMILES: Cc1ccc(OC(c2ccccc2)C2CCNC2)cc1 (stereo not drawn) [Compound 23-6]
- SERT Ki/NET Ki (hSERT; [2]): 0.2
- Ki (hNET; [3]): 6.31 nM

SMILES: Ic1ccccc1OC(c1ccccc1)C1CCNC1 (stereo not drawn) [Compound 19-8]
- SERT Ki/NET Ki (hSERT; [2]): 0.6
- Ki (hNET; [3]): 1 nM

SMILES: Cc1cc(F)ccc1OC(c1ccccc1)C1CCNC1 (stereo not drawn) [27-13]
- SERT Ki/NET Ki (hSERT; [4]): 0.3
- Ki (hNET; hNET binding assay): 3.16 nM

SMILES: c1ccc(Oc2cccc(OC(c3ccccc3)C3CCNC3)c2)cc1 (stereo not drawn) [Compound 21-13]
- SERT Ki/NET Ki (hSERT; [2]): 1.3
- Ki (hNET; [3]): 1.26 nM

SMILES: N#Cc1cccc([C@H](Oc2c(F)ccc(F)c2Cl)[C@@H]2CCNC2)c1 [41-34]
- SERT Ki/NET Ki (hSERT; [1]): 0.8
- Ki (hNET; hNET binding): 7.94 nM

SMILES: CC(=O)c1cc(F)cc(F)c1O[C@@H](c1ccccc1)[C@H]1CCNC1 [44-6]
- SERT Ki/NET Ki (hSERT; [5]): 13
- Ki (hNET; [6]): 1.58 nM

SMILES: CC(C)c1ccccc1OC(c1cccc(F)c1)C1CCNC1 (stereo not drawn) [Compound 20-13]
- SERT Ki/NET Ki (hSERT; [2]): 10
- Ki (hNET; [3]): 5.01 nM

SMILES: Fc1ccc(Br)cc1OC(c1ccccc1)C1CCNC1 (stereo not drawn) [29-7]
- SERT Ki/NET Ki (hSERT; [4]): 1.6
- Ki (hNET; hNET binding assay): 0.794 nM

SMILES: Cc1ccc(Cl)c(O[C@H](c2ccccc2)[C@@H]2CCNC2)c1F [40-28]
- SERT Ki/NET Ki (hSERT; [1]): 0.4
- Ki (hNET; hNET binding): 0.794 nM

SMILES: c1ccc(-c2ccccc2OC(c2ccccc2)C2CCNC2)cc1 (stereo not drawn) [Compound 19-19]
- SERT Ki/NET Ki (hSERT; [2]): 32
- Ki (hNET; [3]): 2 nM

SMILES: Fc1c(Cl)ccc(OC(c2ccccc2)C2CCNC2)c1Cl (stereo not drawn) [36-10]
- SERT Ki/NET Ki (hSERT; [1]): 0.1
- Ki (hNET; hNET binding): 3.16 nM

SMILES: CCC(=O)c1ccccc1OC(c1ccccc1)C1CCNC1 (stereo not drawn) [Compound 19-27]
- SERT Ki/NET Ki (hSERT; [2]): 100
- Ki (hNET; [3]): 2 nM

SMILES: Cc1c(F)cccc1O[C@@H](c1ccccc1)[C@H]1CCNC1 [Compound 25-19]
- SERT Ki/NET Ki (hSERT; [2]): 4
- Ki (hNET; [3]): 0.794 nM

SMILES: COc1ccc(Cl)cc1OC(c1cccc(Cl)c1)C1CCNC1 (stereo not drawn) [30-9]
- SERT Ki/NET Ki (hSERT; [4]): 0.6
- Ki (hNET; hNET binding assay): 7.94 nM

SMILES: CC(=O)c1ccccc1O[C@H](c1ccccc1)[C@@H]1CCNC1 (stereo in doubt) [Ex. 9-3, 1-[2-((R)-phenyl-(S)-pyrrolidin-3-yl-methoxy)phenyl]ethanone]
- SERT Ki/NET Ki (hSERT; [2]): 50
- Ki (hNET; [3]): 3.16 nM

SMILES: Fc1cc(F)cc(C(Oc2c(F)ccc(F)c2F)C2CCNC2)c1 (stereo not drawn) [41-2]
- SERT Ki/NET Ki (hSERT; [1]): 1
- Ki (hNET; hNET binding): 2.51 nM

SMILES: Fc1c(Cl)cccc1OC(c1ccccc1)C1CCNC1 (stereo not drawn) [Compound 25-3]
- SERT Ki/NET Ki (hSERT; [2]): 0.5
- Ki (hNET; [3]): 0.794 nM

SMILES: Cc1ccc(F)c(O[C@@H](c2ccccc2)[C@H]2CCNC2)c1 [29-9]
- SERT Ki/NET Ki (hSERT; [4]): 10
- Ki (hNET; hNET binding assay): 1.26 nM

SMILES: c1ccc(COc2ccc(OC(c3ccccc3)C3CCNC3)cc2)cc1 (stereo not drawn) [Compound 23-15]
- SERT Ki/NET Ki (hSERT; [2]): 2
- Ki (hNET; [3]): 7.94 nM

SMILES: Cc1ccc(F)c(OC(c2cc(F)cc(F)c2)C2CCNC2)c1Cl (stereo not drawn) [41-28]
- SERT Ki/NET Ki (hSERT; [1]): 6.3
- Ki (hNET; hNET binding): 0.316 nM

SMILES: COc1ccc(F)cc1O[C@@H](c1cc(F)cc(F)c1)[C@H]1CCNC1 [30-5]
- SERT Ki/NET Ki (hSERT; [4]): 79
- Ki (hNET; hNET binding assay): 0.501 nM

SMILES: Fc1c(F)c(F)c(O[C@H](c2ccccc2)[C@@H]2CCNC2)c(F)c1F [49-2]
- SERT Ki/NET Ki (hSERT; [5]): 0.2

SMILES: Fc1cc(F)cc([C@H](Oc2cc(Cl)ccc2Cl)[C@H]2CCNC2)c1 [30-4]
- SERT Ki/NET Ki (hSERT; [4]): 2.5
- Ki (hNET; hNET binding assay): 3.16 nM

SMILES: COc1cccc(F)c1OC(c1ccccc1)C1CCNC1 (stereo not drawn) [31-15]
- SERT Ki/NET Ki (hSERT; [4]): 2
- Ki (hNET; hNET binding assay): 2 nM

SMILES: Cc1ccc(Cl)c(OC(c2ccccc2)C2CCNC2)c1Cl (stereo not drawn) [40-31]
- SERT Ki/NET Ki (hSERT; [1]): 0.6

SMILES: NC(=O)c1cccc(C(Oc2c(F)cc(F)cc2F)C2CCNC2)c1 (stereo not drawn) [45-5]
- SERT Ki/NET Ki (hSERT; [5]): 3.2
- Ki (hNET; [6]): 7.94 nM

SMILES: Fc1ccccc1C(Oc1cccc(Cl)c1Cl)C1CCNC1 (stereo not drawn) [Compound 26-1]
- SERT Ki/NET Ki (hSERT; [4]): 0.1
- Ki (hNET; hNET binding assay): 1.58 nM

SMILES: Fc1cc(F)c(F)c(OC(c2ccccc2Cl)C2CCNC2)c1 (stereo not drawn) [39-2]
- SERT Ki/NET Ki (hSERT; [1]): 0.6
- Ki (hNET; hNET binding): 6.31 nM

SMILES: Fc1cc(Cl)cc(C(Oc2cc(Cl)cc(Cl)c2)C2CCNC2)c1 (stereo not drawn) [35-18]
- SERT Ki/NET Ki (hSERT; [1]): 0.5
- Ki (hNET; hNET binding): 5.01 nM

Reference: patent US7888386B2, “3-(phenoxyphenylmethyl)pyrrolidine compounds” (Theravance, Inc., priority 2008, dated 2011)
